Assay results published in the NIST ThermoML archive (doi:10.1016/j.jct.2013.08.013).

Assay: xn = mol fraction of the nth substance listed
Details: 101 kPa, Liquid; for speed of sound: Frequency=2 MHz, Linear variable-path acoustic interferometer; for mass density: Vibrating tube method

Cc1ccccc1Cl [2-chlorotoluene] + CCCO
Details	mass density, 298.15 K [kg/m3]	mass density, 303.15 K [kg/m3]	mass density, 308.15 K [kg/m3]	speed of sound, 298.15 K [m/s]	speed of sound, 303.15 K [m/s]	speed of sound, 308.15 K [m/s]
x1 = 0.089	837.16	832.98	828.75	1219	1200.1	1181.4
x1 = 0.1947	877.01	872.53	868.14	1232	1212.4	1192.8
x1 = 0.2938	910.41	905.71	901.22	1242.5	1221.5	1201.9
x1 = 0.3841	937.91	933.15	928.51	1249.2	1228.7	1207.8
x1 = 0.4898	967.13	962.37	957.66	1257	1234.8	1213.9
x1 = 0.5918	992.79	988	983.25	1262.5	1240.5	1219.2
x1 = 0.6979	1017.16	1012.42	1007.7	1269	1246.3	1225.2
x1 = 0.7955	1037.96	1033.25	1028.56	1275.3	1253.4	1234
x1 = 0.8932	1057.42	1052.78	1048.12	1284.4	1264.7	1245.4
x1 = 1	1077.38	1072.8	1068.21	1299.8	1283.6	1265.6
